PubChem BioAssay (NCI)
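48-hour exposure; five concentrations; linearly interpolated endpoints. Here, GI50 denotes the concentration required for 50% inhibition of growth. At the TGI there is no net growth.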

Tests used:
Experiment in all cases: growth of human tumour cells (NCI), 48 h
A498 renal = tested on: A498 renal
A549 NSCLC = tested on: A549 NSCLC
ACHN renal = tested on: ACHN renal
CCRF-CEM leukemia = tested on: CCRF-CEM leukemia
COLO 205 colon = tested on: COLO 205 colon
DLD-1 colon = tested on: DLD-1 colon
DMS 114 small cell lung = tested on: DMS 114 small cell lung
DMS 273 small cell lung = tested on: DMS 273 small cell lung
EKVX NSCLC = tested on: EKVX NSCLC
HCC-2998 colon = tested on: HCC-2998 colon
HCT-116 colon = tested on: HCT-116 colon
HCT-15 colon = tested on: HCT-15 colon
HL-60(TB) leukemia = tested on: HL-60(TB) leukemia
HOP-62 NSCLC = tested on: HOP-62 NSCLC
HOP-92 NSCLC = tested on: HOP-92 NSCLC
HT29 colon = tested on: HT29 colon
IGROV1 ovarian = tested on: IGROV1 ovarian
KM12 colon = tested on: KM12 colon
KM20L2 colon = tested on: KM20L2 colon
LOX IMVI melanoma = tested on: LOX IMVI melanoma
LXFL 529 NSCLC = tested on: LXFL 529 NSCLC
M14 melanoma = tested on: M14 melanoma
M19-MEL melanoma = tested on: M19-MEL melanoma
MALME-3M melanoma = tested on: MALME-3M melanoma
MOLT-4 leukemia = tested on: MOLT-4 leukemia
NCI-H226 lung = tested on: NCI-H226 lung
NCI-H23 lung = tested on: NCI-H23 lung
NCI-H460 lung = tested on: NCI-H460 lung
NCI-H522 lung = tested on: NCI-H522 lung
OVCAR-3 ovarian = tested on: OVCAR-3 ovarian
OVCAR-4 ovarian = tested on: OVCAR-4 ovarian
OVCAR-5 ovarian = tested on: OVCAR-5 ovarian
OVCAR-8 ovarian = tested on: OVCAR-8 ovarian
RPMI-8226 leukemia = tested on: RPMI-8226 leukemia
RXF 393 renal = tested on: RXF 393 renal
SF-268 CNS = tested on: SF-268 CNS
SF-295 CNS = tested on: SF-295 CNS
SF-539 CNS = tested on: SF-539 CNS
SK-MEL-2 melanoma = tested on: SK-MEL-2 melanoma
SK-MEL-28 melanoma = tested on: SK-MEL-28 melanoma
SK-MEL-5 melanoma = tested on: SK-MEL-5 melanoma
SK-OV-3 ovarian = tested on: SK-OV-3 ovarian
SN12C renal = tested on: SN12C renal
SNB-19 CNS = tested on: SNB-19 CNS
SNB-75 CNS = tested on: SNB-75 CNS
SNB-78 CNS = tested on: SNB-78 CNS
SR leukemia = tested on: SR leukemia
SW-620 colon = tested on: SW-620 colon
TK-10 renal = tested on: TK-10 renal
U251 CNS = tested on: U251 CNS
UACC-257 melanoma = tested on: UACC-257 melanoma
UACC-62 melanoma = tested on: UACC-62 melanoma
XF 498 CNS = tested on: XF 498 CNS
786-0 renal = tested on: 786-0 renal
CAKI-1 renal = tested on: CAKI-1 renal
K-562 leukemia = tested on: K-562 leukemia
UO-31 renal = tested on: UO-31 renal

In the case of NCCSCC(N)C(=O)O (stereo not given), the TGI (A498 renal) is reported as > 497 µM, the GI50 (A549 NSCLC) is reported as > 497 µM and the TGI (A549 NSCLC) is reported as > 497 µM. The GI50 (ACHN renal) was > 497 µM, the TGI (ACHN renal) was > 497 µM and the GI50 (CCRF-CEM leukemia) was > 497 µM. The TGI (CCRF-CEM leukemia) was > 497 µM, the GI50 (COLO 205 colon) was > 497 µM and the TGI (COLO 205 colon) was > 497 µM. The TGI (DLD-1 colon) was > 497 µM, the TGI (DMS 114 small cell lung) was > 497 µM and the TGI (DMS 273 small cell lung) was > 497 µM. For the same compound, the TGI (EKVX NSCLC) was > 497 µM, the TGI (HCC-2998 colon) was > 497 µM and the GI50 (HCT-116 colon) was > 497 µM. For the same compound, the TGI (HCT-116 colon) was > 497 µM, the GI50 (HCT-15 colon) was > 497 µM and the TGI (HCT-15 colon) was > 497 µM. For the same compound, the TGI (HL-60(TB) leukemia) was > 497 µM, the TGI (HOP-62 NSCLC) was > 497 µM and the TGI (HOP-92 NSCLC) was > 497 µM. The GI50 (HT29 colon) was > 497 µM, the TGI (HT29 colon) was > 497 µM and the GI50 (IGROV1 ovarian) was > 497 µM. The TGI (IGROV1 ovarian) was > 497 µM, the GI50 (KM12 colon) was > 497 µM and the TGI (KM12 colon) was > 497 µM. The TGI (KM20L2 colon) was > 497 µM, the TGI (LOX IMVI melanoma) was > 497 µM and the TGI (LXFL 529 NSCLC) was > 497 µM. For the same compound, the TGI (M14 melanoma) was > 497 µM, the TGI (M19-MEL melanoma) was > 497 µM and the GI50 (MALME-3M melanoma) was > 497 µM. For the same compound, the TGI (MALME-3M melanoma) was > 497 µM, the TGI (MOLT-4 leukemia) was > 497 µM and the TGI (NCI-H226 lung) was > 497 µM. For the same compound, the TGI (NCI-H23 lung) was > 497 µM, the GI50 (NCI-H460 lung) was > 497 µM and the TGI (NCI-H460 lung) was > 497 µM. The GI50 (NCI-H522 lung) was > 497 µM, the TGI (NCI-H522 lung) was > 497 µM and the GI50 (OVCAR-3 ovarian) was > 497 µM. The TGI (OVCAR-3 ovarian) was > 497 µM, the TGI (OVCAR-4 ovarian) was > 497 µM and the TGI (OVCAR-5 ovarian) was > 497 µM. For the same compound, the TGI (OVCAR-8 ovarian) was > 497 µM, the GI50 (RPMI-8226 leukemia) was > 497 µM and the TGI (RPMI-8226 leukemia) was > 497 µM. For the same compound, the TGI (RXF 393 renal) was > 497 µM, the TGI (SF-268 CNS) was > 497 µM and the TGI (SF-295 CNS) was > 497 µM. For the same compound, the TGI (SF-539 CNS) was > 497 µM, the TGI (SK-MEL-2 melanoma) was > 497 µM and the TGI (SK-MEL-28 melanoma) was > 497 µM. The GI50 (SK-MEL-5 melanoma) was > 497 µM, the TGI (SK-MEL-5 melanoma) was > 497 µM and the TGI (SK-OV-3 ovarian) was > 497 µM. For the same compound, the TGI (SN12C renal) was > 497 µM, the TGI (SNB-19 CNS) was > 497 µM and the GI50 (SNB-75 CNS) was 470 µM. For the same compound, the TGI (SNB-75 CNS) was > 497 µM, the TGI (SNB-78 CNS) was > 497 µM and the TGI (SR leukemia) was > 497 µM. For the same compound, the GI50 (SW-620 colon) was > 497 µM, the TGI (SW-620 colon) was > 497 µM and the TGI (TK-10 renal) was > 497 µM. For the same compound, the TGI (U251 CNS) was > 497 µM, the TGI (UACC-257 melanoma) was > 497 µM and the TGI (UACC-62 melanoma) was > 497 µM. For the same compound, the TGI (XF 498 CNS) was > 497 µM.

CSC1C=C(C(C)C)CCC1(C)SC (stereo not given) gave a TGI (786-0 renal) of 31.7 µM, a TGI (A498 renal) of 40.4 µM and a TGI (A549 NSCLC) of 78.4 µM. For the same compound, the TGI (ACHN renal) was 32.6 µM, the TGI (CAKI-1 renal) was 32.4 µM and the TGI (CCRF-CEM leukemia) was 57 µM. The TGI (COLO 205 colon) was 29.7 µM, the TGI (DLD-1 colon) was 32.4 µM and the TGI (DMS 114 small cell lung) was 30.6 µM. For the same compound, the TGI (DMS 273 small cell lung) was 33 µM, the TGI (EKVX NSCLC) was 44.7 µM and the TGI (HCC-2998 colon) was 30.9 µM. For the same compound, the TGI (HCT-116 colon) was 37.1 µM, the TGI (HCT-15 colon) was 39.9 µM and the TGI (HL-60(TB) leukemia) was 27.8 µM. For the same compound, the TGI (HOP-62 NSCLC) was 35.5 µM, the TGI (HOP-92 NSCLC) was 31.2 µM and the TGI (HT29 colon) was 29.6 µM. For the same compound, the TGI (IGROV1 ovarian) was 35.5 µM, the TGI (K-562 leukemia) was 40.9 µM and the TGI (KM12 colon) was 27.7 µM. For the same compound, the TGI (KM20L2 colon) was 56.8 µM, the TGI (LOX IMVI melanoma) was 32.5 µM and the TGI (LXFL 529 NSCLC) was 32.9 µM. For the same compound, the TGI (M14 melanoma) was 32 µM, the TGI (M19-MEL melanoma) was 31.3 µM and the TGI (MALME-3M melanoma) was 26.1 µM. For the same compound, the TGI (MOLT-4 leukemia) was 40 µM, the TGI (NCI-H226 lung) was 31.6 µM and the TGI (NCI-H23 lung) was 35.7 µM. For the same compound, the TGI (NCI-H460 lung) was 30.9 µM, the TGI (NCI-H522 lung) was 31.6 µM and the TGI (OVCAR-3 ovarian) was 25.2 µM. For the same compound, the TGI (OVCAR-4 ovarian) was 33.9 µM, the TGI (OVCAR-5 ovarian) was 30.5 µM and the TGI (OVCAR-8 ovarian) was 35.5 µM. For the same compound, the TGI (RPMI-8226 leukemia) was 59.4 µM, the TGI (RXF 393 renal) was 29 µM and the TGI (SF-268 CNS) was 35.1 µM. For the same compound, the TGI (SF-539 CNS) was 33.6 µM, the TGI (SK-MEL-2 melanoma) was 32.8 µM and the TGI (SK-MEL-28 melanoma) was 34.2 µM. It also gave a TGI (SK-MEL-5 melanoma) of 31.3 µM, a TGI (SK-OV-3 ovarian) of 39.3 µM and a TGI (SN12C renal) of 30.6 µM. The TGI (SNB-19 CNS) was 36.9 µM, the TGI (SNB-75 CNS) was 31.7 µM and the TGI (SNB-78 CNS) was 32.3 µM. The TGI (SW-620 colon) was 38 µM, the TGI (TK-10 renal) was 41.4 µM and the TGI (U251 CNS) was 33.7 µM. The TGI (UACC-257 melanoma) was 29.4 µM, the TGI (UACC-62 melanoma) was 47.6 µM and the TGI (UO-31 renal) was 27.4 µM. The TGI (XF 498 CNS) was 33.8 µM.
